Experimental data as given in patent publication EP0008888A1, “Beta-lactam antibacterial compounds, their preparation and pharmaceutical compositions containing them” (BEECHAM GROUP PLC, priority 1978, dated 1980).
≈ marks a conversion by molar mass, not a printed value. Like-named read-outs stand apart in the source and are kept apart here.

Legend:
Type in all cases: cell-based
[1] = system: Branhamella catarrhalis 1502; assay: Antibacterial activity (MIC); conditions: Moraxella catarrhalis, 1502, Branhamella catarrhalis 1502; read-out: MIC
Klebsiella aerogenes A [2] = assay: Antibacterial activity (MIC); conditions: Klebsiella aerogenes, read-out: MIC
[3] = system: Escherichia coli ATCC 27166; assay: Antibacterial activity (MIC); conditions: Escherichia coli, ATCC27166, Escherichia coli ATCC 27166; read-out: MIC
Escherichia coli ESS = assay: Antibacterial activity (MIC); conditions: Escherichia coli, read-out: MIC
Escherichia coli 0111 [4] = assay: Antibacterial activity (MIC); conditions: Escherichia coli, 0111, Escherichia coli 0111; read-out: MIC
Citrobacter freundii E8 [5] = assay: Antibacterial activity (MIC); conditions: Citrobacter freundii, E8, Citrobacter freundii E8; read-out: MIC
[6] = system: Bacillus subtilis ATCC 6633; assay: Antibacterial activity (MIC); conditions: Bacillus subtilis, ATCC6633, Bacillus subtilis ATCC 6633; read-out: MIC
[7] = system: Salmonella typhimurium CT10; assay: Antibacterial activity (MIC); conditions: Salmonella enterica, TYPHIMURIUM, read-out: MIC
[8] = system: Streptococcus pneumoniae CN33; assay: Antibacterial activity (MIC); conditions: Streptococcus pneumoniae, CN33, Streptococcus pneumoniae CN33; read-out: MIC
[9] = system: Staphylococcus aureus Oxford; assay: Antibacterial activity (MIC); conditions: read-out: MIC
Shigella sonnei MB11967 = assay: Antibacterial activity (MIC); conditions: Shigella sonnei, MB11967, Shigella sonnei MB11967; read-out: MIC
[10] = system: Streptococcus pyogenes CN10; assay: Antibacterial activity (MIC); conditions: Streptococcus pyogenes, CN10, Streptococcus pyogenes CN10; read-out: MIC
[11] = system: Escherichia coli NCTC 10418; assay: Antibacterial activity (MIC); conditions: Escherichia coli, NCTC10418, Escherichia coli NCTC 10418; read-out: MIC
Serratia marcescens US20 = assay: MIC in a standard test
Escherichia coli JT39 = assay: MIC in a standard test
Escherichia coli 0111 [12] = assay: MIC in a standard test
Shigella sonnei MB 11967 = assay: MIC in a standard test; conditions: MB11967
Proteus rettgeri WM16 = assay: MIC in a standard test; conditions: Providencia rettgeri
Klebsiella aerogenes A [13] = assay: MIC in a standard test
Proteus morganii I580 = assay: MIC in a standard test; conditions: Morganella morganii
Streptococcus faecalis I = assay: MIC in a standard test; conditions: Enterococcus faecalis
Proteus vulgaris WO91 = assay: MIC in a standard test
[14] = system: Staphylococcus aureus Russell; assay: MIC in a standard test
[15] = system: Salmonella typhimurium CT10; assay: MIC in a standard test; conditions: Salmonella enterica
Enterobacter cloacoae N1 = assay: MIC in a standard test
[16] = system: Streptococcus pneumoniae CN33; assay: MIC in a standard test
Bacillus subtilis A = assay: MIC in a standard test
[17] = system: Streptococcus pyogenes CN10; assay: MIC in a standard test
Proteus mirabilis C977 = assay: MIC in a standard test
Pseudomonas aeruginosa A = assay: MIC in a standard test
[18] = system: Staphylococcus aureus 1517; assay: MIC in a standard test
Citrobacter freundii E8 [19] = assay: MIC in a standard test
[20] = system: Staphylococcus aureus Oxford; assay: MIC in a standard test
[21] = standard test, Escherichia coli JT39, read-out: MIC

SMILES	MIC (Serratia marcescens US20) [µg/mL]	MIC (Escherichia coli JT39; [21]) [µg/mL]	MIC (Escherichia coli 0111 [12]) [µg/mL]	MIC (Shigella sonnei MB 11967) [µg/mL]	MIC (Proteus rettgeri WM16) [µg/mL]	MIC (Klebsiella aerogenes A [13]) [µg/mL]	MIC (Proteus morganii I580) [µg/mL]	MIC (Streptococcus faecalis I) [µg/mL]	MIC (Proteus vulgaris WO91) [µg/mL]	MIC [14] [µg/mL]	MIC [15] [µg/mL]	MIC (Enterobacter cloacoae N1) [µg/mL]	MIC [16] [µg/mL]	MIC (Bacillus subtilis A) [µg/mL]	MIC [17] [µg/mL]	MIC (Proteus mirabilis C977) [µg/mL]	MIC (Pseudomonas aeruginosa A) [µg/mL]	MIC [18] [µg/mL]	MIC (Citrobacter freundii E8 [19]) [µg/mL]	MIC [20] [µg/mL]	further results
CCSC1=C(C(=O)OCc2ccc([N+](=O)[O-])cc2)N2C(=O)CC2C1 (racemic) [(±), p-Nitrobenzyl 3-ethylthio-7-oxo-1-azabicyclo [3,2,0]hept-2-ene-2-carboxylate]																					MIC [1]: 1.2 µg/mL (≈ 3.44 µM); MIC (Klebsiella aerogenes A [2]): 25 µg/mL (≈ 71.8 µM); MIC [3]: 12.5 µg/mL (≈ 35.9 µM); MIC (Escherichia coli ESS): 12.5 µg/mL (≈ 35.9 µM); MIC (Escherichia coli 0111 [4]): > 50 µg/mL; MIC (Citrobacter freundii E8 [5]): 50 µg/mL (≈ 144 µM); MIC [6]: 25 µg/mL (≈ 71.8 µM); MIC [7]: 50 µg/mL (≈ 144 µM); MIC [8]: 1.2 µg/mL (≈ 3.44 µM); MIC [9]: > 50 µg/mL; MIC (Shigella sonnei MB11967): > 50 µg/mL; MIC [10]: 1.2 µg/mL (≈ 3.44 µM); MIC [11]: 50 µg/mL (≈ 144 µM)
CCSC1=C(C(=O)O)N2C(=O)[C@@H](C)[C@H]2C1 (relative stereo) [Example 79, Sodium 3 - ethylthio-6β - methyl - 7 - oxo - 1 - azabicyclo [3.2 .O] hept - 2 - ene - 2 - carboxylate]	12.5	6.2	6.2	3.1	25	3.1	25	> 50	25	6.2	3.1	6.2	0.8	6.2	3.1	6.2	> 50	> 50	6.2	3.1	
CCSC1=C(C(=O)[O-])N2C(=O)CC2C1.[Na+] (stereo not drawn) [Example 7, Sodium 3-ethylthio-7-oxo-1-azabicyclo(3,2,0)hept-2-ene-2-carboxylate]	10		2.5	5.2	50	1	10	100	50	10	2.5	2.5	1	1	1	10	> 100	> 100	2.5	5	MIC (Escherichia coli JT39; Escherichia coli, JT39): 50 µg/mL
COCCSC1=C(C(=O)O)N2C(=O)C[C@H]2C1 [Example 32, Sodium 3-(2-methxyethylthio)-7-oxo-1-azabicyclo[3.2.0] hept-2-ene-2-carboxylate]	12.5	6.2	3.1	3.1	50	1.6	50	50	50	25	3.1	6.2	≤ 0.2	1.6	1.6	6.2	> 100	> 50	3.1	6.2	
CNC(=O)OCCSC1=C(C(=O)[O-])N2C(=O)CC2C1.[Na+] (stereo not drawn) [Example 37, Sodium 3-(2-methylcarbamoyloxyethylthio)-7-oxo-1-azabicyclo [3.2.0]hept-2-ene-2-carboxylate]	6.2		0.8	0.8	12.5	0.4	12.5	25	12.5	12.5	0.8	1.6	≤ 0.2	0.8	≤ 0.2	1.6	> 50	> 50	1.6	1.6	MIC (Escherichia coli JT39; Escherichia coli, JT39): 6.2 µg/mL
CSC1=C(C(=O)[O-])N2C(=O)CC2C1.[Na+] (stereo not drawn) [Example 42, Sodium 3-methylthio-7-oxo-1-azabicyclo[3.2.0]hept-2-ene-2-carboxylate]	3.1		3.1	3.1	25	3.1	25	> 50	25	12.5	3.1	3.1	≤ 0.2	1.6	0.8	25	> 50	> 50	1.6	6.2	MIC (Escherichia coli JT39; Escherichia coli, JT39): 6.2 µg/mL
O=C(O)C1=C(SCc2ccccc2)C[C@@H]2CC(=O)N12 [Example 47, Sodium 3-benzylthio-7-oxo-1-azabicyclo[3.2.0]hept-2-ene-2-carboxvlate]	50	50	6.2	6.2	> 50	6.2	50	> 50	> 50	6.2	6.2	12.5	≤ 0.2	1.6	1.6	50	> 50	> 50	25	6.2	
CCSC1=C(C(=O)OC2OC(=O)c3ccccc32)N2C(=O)[C@@H](CC)[C@H]2C1 (stereo partly drawn) [Example 75, Phthalidyl 6β-ethyl - 3-ethylthio - 7 - oxo - 1 - azabicyclo [3.2.0] hept - 2 - ene - 2-carboxylate]	50 (≈ 134 µM)	50 (≈ 134 µM)	25 (≈ 66.9 µM)	12.5 (≈ 33.5 µM)	25 (≈ 66.9 µM)	25 (≈ 66.9 µM)	25 (≈ 66.9 µM)	> 50	50 (≈ 134 µM)	12.5 (≈ 33.5 µM)	12.5 (≈ 33.5 µM)	12.5 (≈ 33.5 µM)	1.2 (≈ 3.21 µM)	5 (≈ 13.4 µM)	5 (≈ 13.4 µM)	25 (≈ 66.9 µM)	> 50	> 50	25 (≈ 66.9 µM)	5 (≈ 13.4 µM)	
